From patent US20210047324A1 (Aptinyx Inc., priority 2018, published 2021)
Where “and” joins values, the source holds several entries; their conditions need not be identical. Identical values can stand only once.

Experiments:
[1] = molecular target: T1, NMDAR2A (Homo sapiens, UniProt Q12879); assay: NMDAR agonist assay, [3H]MK-801 binding, NMDAR2A expressing HEK cell membranes; assay type: biochemical; design: key to NMDAR2A B: log EC50: 0=−; ≥1×10^−9 M (e.g., −8)=+; <1×10^−9 M (e.g., −10)=++; settings: 50 μM glutamate; for EC50: read-out: NMDAR2A B: log EC50 (converted); for Emax: 0.25 h, read-out: NMDAR2A A: % maximal [3H]MK-801 binding relative to 1 mM glycine; for NMDAR2A A: % maximal [3H]MK-801 binding relative to 1 mM glycine / Emax: relative to 1 mM glycine
T1 construct: expressed in transfected cells; host or cells: HEK cells (membrane extract)
T1 sequence (Q12879 23-1464, species assumed, other chains not shown): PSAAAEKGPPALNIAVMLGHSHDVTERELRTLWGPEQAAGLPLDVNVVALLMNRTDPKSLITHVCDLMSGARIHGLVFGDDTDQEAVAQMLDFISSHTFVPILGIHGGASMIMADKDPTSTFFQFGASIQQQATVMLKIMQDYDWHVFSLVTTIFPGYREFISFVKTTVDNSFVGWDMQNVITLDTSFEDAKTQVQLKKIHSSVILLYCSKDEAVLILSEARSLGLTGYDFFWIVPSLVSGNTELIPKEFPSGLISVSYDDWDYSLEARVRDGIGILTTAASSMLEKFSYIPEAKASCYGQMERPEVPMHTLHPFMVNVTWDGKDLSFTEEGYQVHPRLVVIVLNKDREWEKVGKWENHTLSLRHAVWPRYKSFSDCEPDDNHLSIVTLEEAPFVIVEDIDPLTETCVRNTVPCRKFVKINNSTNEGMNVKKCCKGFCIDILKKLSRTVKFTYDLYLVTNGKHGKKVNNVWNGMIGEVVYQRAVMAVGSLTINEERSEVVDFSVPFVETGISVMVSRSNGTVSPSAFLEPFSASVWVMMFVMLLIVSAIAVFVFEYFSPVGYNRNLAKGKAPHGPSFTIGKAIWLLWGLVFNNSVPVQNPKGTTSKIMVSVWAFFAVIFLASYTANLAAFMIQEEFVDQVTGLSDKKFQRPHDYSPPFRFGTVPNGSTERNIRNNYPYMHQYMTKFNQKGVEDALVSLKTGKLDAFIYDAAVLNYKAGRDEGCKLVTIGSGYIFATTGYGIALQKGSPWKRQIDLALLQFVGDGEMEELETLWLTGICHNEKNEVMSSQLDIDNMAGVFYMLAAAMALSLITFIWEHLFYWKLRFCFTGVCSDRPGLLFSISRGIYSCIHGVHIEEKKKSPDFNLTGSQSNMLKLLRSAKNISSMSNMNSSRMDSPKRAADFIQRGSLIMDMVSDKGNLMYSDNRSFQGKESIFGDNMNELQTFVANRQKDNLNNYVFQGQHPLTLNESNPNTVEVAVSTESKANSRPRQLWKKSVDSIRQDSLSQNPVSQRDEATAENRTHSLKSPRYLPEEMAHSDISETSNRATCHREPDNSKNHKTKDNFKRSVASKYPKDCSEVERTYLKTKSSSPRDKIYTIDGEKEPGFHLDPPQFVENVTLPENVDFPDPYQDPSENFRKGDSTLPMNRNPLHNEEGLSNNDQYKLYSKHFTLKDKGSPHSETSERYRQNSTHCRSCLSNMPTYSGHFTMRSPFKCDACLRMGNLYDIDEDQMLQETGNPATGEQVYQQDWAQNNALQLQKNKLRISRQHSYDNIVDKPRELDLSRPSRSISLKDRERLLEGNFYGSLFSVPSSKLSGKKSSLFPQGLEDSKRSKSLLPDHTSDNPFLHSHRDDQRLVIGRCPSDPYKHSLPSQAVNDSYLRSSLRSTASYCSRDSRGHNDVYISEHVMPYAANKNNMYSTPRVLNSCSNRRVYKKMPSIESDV
Description: (§1) Assays were conducted as described by Moskal et al., “GLYX-13: a monoclonal antibody-derived peptide that acts as an N-methyl-D-aspartate receptor modulator,” Neuropharmacology, 49, 1077-87, 2005. These studies were designed to determine if the test compounds act to facilitate NMDAR activation in NMDAR2A, NMDAR2B, NMDAR2C or NMDAR2D expressing HEK cell membranes as measured by increases in [^3H]MK-801 binding.
(§2) In the assay, 300 μg of NMDAR expressing HEK cell membrane extract protein was preincubated for 15 minutes at […] in the presence of saturating concentrations of glutamate (50 μM) and varying concentrations of test compound (1×10^−15M-1×10^−7M), or 1 mM glycine. Following the addition of 0.3 μCi of [3H]MK-801 (22.5 Ci/mmol), reactions were again incubated for 15 minutes at 25° C. (nonequilibrium conditions). Bound and free [3H]MK-801 were separated via rapid filtration using a Brandel apparatus.
(§3) In analyzing the data, the DPM (disintegrations per minute) of [3H]MK-801 remaining on the filter were measured for each concentration of test compound or for 1 mM glycine. The DPM values for each concentration of a ligand (N=2) were averaged. The baseline value was determined from the best fit curve of the DPM values modeled using the GraphPad program and the log(agonist) vs. response (three parameters) algorithm was then subtracted from all points in the dataset. The % maximal [^3H]MK-801 binding was then calculated relative to that of 1 mM glycine: all baseline subtracted DPM values were divided by the average value for 1 mM glycine. The EC50 and % maximal activity were then obtained from the best fit curve of the % maximal [3H]MK-801 binding data modelled using the GraphPad program and the log(agonist) vs. response (three parameters) algorithm.
(§4) The tables below summarize the results for the wild type […] NMDAR2A, NMDAR2B, NMDAR2C, and NMDAR2D, and whether the compound is not an agonist (−), is an agonist (+), or is a strong agonist (++), where column A is based on the % maximal [3H]MK-801 binding relative to 1 mM glycine (−=0; <100%=+; and >100%=++); and column B is based on log EC50 values (0=−; ≥1×10^−9 M (e.g., −8)=+; and <1×10^−9 M (e.g., −10)=++).

[2] = molecular target: T2, NMDAR2B (Homo sapiens, UniProt Q13224); assay: NMDAR agonist assay, [3H]MK-801 binding, NMDAR2B expressing HEK cell membranes; assay type: biochemical; design: key to NMDAR2B B: log EC50: 0=−; ≥1×10^−9 M (e.g., −8)=+; <1×10^−9 M (e.g., −10)=++; settings: 50 μM glutamate; for EC50: read-out: NMDAR2B B: log EC50 (converted); for NMDAR2B A: % maximal [3H]MK-801 binding relative to 1 mM glycine / Emax: relative to 1 mM glycine; for Emax: read-out: NMDAR2B A: % maximal [3H]MK-801 binding relative to 1 mM glycine
T2 construct: expressed in transfected cells; host or cells: HEK cells (membrane extract)
T2 sequence (Q13224 27-1484, species assumed, other chains not shown): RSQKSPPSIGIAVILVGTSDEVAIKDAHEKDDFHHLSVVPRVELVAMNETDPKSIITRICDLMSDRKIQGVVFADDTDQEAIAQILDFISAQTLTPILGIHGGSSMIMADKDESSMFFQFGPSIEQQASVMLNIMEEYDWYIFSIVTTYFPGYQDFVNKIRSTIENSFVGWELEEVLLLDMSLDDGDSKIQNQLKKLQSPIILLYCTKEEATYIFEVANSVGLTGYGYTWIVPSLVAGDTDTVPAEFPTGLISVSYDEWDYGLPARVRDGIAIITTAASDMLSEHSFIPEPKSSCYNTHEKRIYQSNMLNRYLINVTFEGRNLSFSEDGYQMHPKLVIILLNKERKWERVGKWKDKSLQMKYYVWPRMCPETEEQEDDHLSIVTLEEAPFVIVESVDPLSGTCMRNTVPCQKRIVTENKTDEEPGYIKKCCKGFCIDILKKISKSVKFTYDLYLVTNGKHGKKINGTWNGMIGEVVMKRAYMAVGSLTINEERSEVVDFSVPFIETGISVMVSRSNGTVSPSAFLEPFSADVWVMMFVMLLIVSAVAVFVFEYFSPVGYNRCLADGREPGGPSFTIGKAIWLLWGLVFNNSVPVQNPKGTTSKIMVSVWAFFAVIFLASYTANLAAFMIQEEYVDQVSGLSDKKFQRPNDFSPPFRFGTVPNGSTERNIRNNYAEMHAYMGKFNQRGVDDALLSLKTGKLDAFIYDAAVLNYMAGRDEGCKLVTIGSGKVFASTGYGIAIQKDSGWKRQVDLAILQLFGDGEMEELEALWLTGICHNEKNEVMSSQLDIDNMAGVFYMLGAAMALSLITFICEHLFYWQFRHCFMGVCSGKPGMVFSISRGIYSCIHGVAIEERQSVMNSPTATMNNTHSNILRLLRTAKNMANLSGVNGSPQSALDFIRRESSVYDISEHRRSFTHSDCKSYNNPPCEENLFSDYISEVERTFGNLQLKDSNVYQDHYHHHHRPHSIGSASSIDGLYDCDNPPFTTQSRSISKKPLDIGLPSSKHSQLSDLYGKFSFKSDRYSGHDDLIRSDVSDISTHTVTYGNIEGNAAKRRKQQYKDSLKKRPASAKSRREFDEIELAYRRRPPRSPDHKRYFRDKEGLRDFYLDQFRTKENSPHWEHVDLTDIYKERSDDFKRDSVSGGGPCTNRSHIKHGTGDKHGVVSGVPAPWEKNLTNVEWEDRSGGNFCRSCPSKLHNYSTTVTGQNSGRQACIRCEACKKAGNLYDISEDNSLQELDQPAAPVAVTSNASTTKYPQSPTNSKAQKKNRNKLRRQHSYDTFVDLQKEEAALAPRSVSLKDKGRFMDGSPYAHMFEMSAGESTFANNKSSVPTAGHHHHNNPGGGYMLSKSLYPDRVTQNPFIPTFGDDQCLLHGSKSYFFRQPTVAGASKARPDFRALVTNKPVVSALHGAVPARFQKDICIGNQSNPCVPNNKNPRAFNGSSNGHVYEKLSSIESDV
Description: as §1, §2, §3, §4

[3] = IV pharmacokinetics in Sprague Dawley rats; assay type: in vivo; settings: Sprague-Dawley, rat, in vivo, iv, 2 mg/kg, normal saline; for Cmax: read-out: Cmax; for Vd: read-out: Vss
Description: Sprague Dawley rats were dosed intravenously using a normal saline formulation containing 2 mg/kg of the compounds identified in the below table. The table below summarizes the results of the IV pharmacokinetics.

[4] = Oral pharmacokinetics in Sprague Dawley rats (plasma, brain, CSF); assay type: in vivo; settings: rat, 10 mg/kg; for Tmax / AUC(0-t) / bioavailability / Cmax: Sprague-Dawley, po, plasma; for Tmax / AUC(0-t) / Cmax / CSF Cmax / Brain Cmax: per os; for Tmax: read-out: Tmax; for bioavailability: per os 10 mg/kg; for Cmax: read-out: Cmax
Description: In another experiment, Sprague Dawley rats were dosed per os (oral gavage) using a normal saline formulation containing 10 mg/kg of the compounds identified in the table below. Plasma, brain, and CSF samples were analyzed at various time points over a 24 hour period. The table below summarizes the results of the oral pharmacokinetics, where the first three values (Tmax, Cmax and AUClast) are plasma values.

[5] = Microsomal stability (Human); assay type: in vitro ADME; settings: after 60 minutes
Description: Microsomal stability of disclosed compounds was investigated. The following table indicates the percent of compound remaining after 60 minutes.

[6] = Plasma stability (Human); assay type: in vitro ADME; settings: after 60 minutes
Description: (§5) Plasma stability of disclosed compounds was investigated. The following table indicates the percent of compound remaining after 60 minutes.

[7] = Plasma stability (Rat); assay type: in vitro ADME; settings: after 60 minutes
Description: as §5

[8] = tested on: Sprague Dawley rats; assay: Porsolt forced swim test; assay type: in vivo; settings: 1 h post-dose, 0.1 mg/kg
Description: A non-clinical in vivo pharmacology study (Porsolt assay) was performed to measure antidepressant-like effects. The study allowed for the evaluation of the effects of each compound on the Porsolt forced swim test as assessed by the rats' response (reduced floating time) during a 5-minute swimming test.
Male 2-3 month old Sprague Dawley rats were used (Harlan, Indianapolis, Ind.). Rats were housed in Lucite cages with aspen wood chip bedding, maintained on a 12:12 light:dark cycle (lights on at 5 AM), and given ad libitum access to Purina lab chow (USA) and tap water throughout the study.
The Porsolt forced swim test adapted for use in rats was performed as described by Burgdorf et al., (The long-lasting antidepressant effects of rapastinel (GLYX-13) are associated with a metaplasticity process in the medial prefrontal cortex and hippocampus. Neuroscience 308:202-211, 2015). Animals were placed in a 46 cm tall×20 cm in diameter clear glass tube filled to 30 cm with tap water (23±1° C.) for 15 min on the first day (habituation) and 5 min on the subsequent test day. Animals were tested 1 h or 24 h post-dosing with the test compounds or vehicle control (0.5% sodium carboxymethyl cellulose in 0.9% sterile saline). A subset of compounds tested at 1 h post-dosing was tested again 1 wk post-dosing. Animals received a 15 min habituation session 1 day before the first 5 min test. Water was changed after every other animal. Animals were videotaped, and floating time as defined as the minimal amount of effort required to keep the animals head above water was scored offline by a blinded experimenter with high inter-rater reliability (Pearson's r >0.9).

Row | Structure (SMILES) | EC50 [1] [nM] | NMDAR2A A: % maximal [3H]MK-801 binding relative to 1 mM glycine [1] | EC50 [2] [nM] | Emax [1] [%] | Emax [2] [%] | also measured
1 | CC(C)C(=O)N1CCC2(CCCN2C(=O)C(C)C)C1=O (single isomer, unassigned) [GU-2, 1,1′-(6-oxo-1,7-diazaspiro[4.4]nonane-1,7-diyl)bis(2-methylpropan-1-one)] | < 1 | + (<100%=+) | < 1 |  |  | NMDAR2B A: % maximal [3H]MK-801 binding relative to 1 mM glycine [2]: + (<100%=+)
2 | O=C1NCCCC12CCCNC2 (single isomer, unassigned) [CD, 2,8-diazaspiro[5.5]undecan-1-one] | < 1 |  | < 1 | < 100 | < 100 | 
3 | O=C1NCCCC12CCCNC2 (single isomer, unassigned) [CE, 2,8-diazaspiro[5.5]undecan-1-one] | < 1 |  | < 1 |  |  | 
4 | CN1CC=CCC2(CCCN2Cc2ccccc2)C1=O (single isomer, unassigned) [GT-2, 1-benzyl-7-methyl-1,7-diazaspiro[4.6]undec-9-en-6-one] | < 1 |  | ≥ 1 |  |  | 
5 | CN1CC=CCC2(CCCN2C)C1=O (stereo not shown) [listing 1 of 2 here] |  | − (−=0) |  |  | 0 | NMDAR2A B: log EC50 [1]: −; NMDAR2B B: log EC50 [2]: −
6 | CN1CC=CCC2(CCCN2C)C1=O (stereo not shown) [listing 2 of 2 here] | < 1 | + (<100%=+) |  |  |  | NMDAR2B B: log EC50 [2]: −; NMDAR2B A: % maximal [3H]MK-801 binding relative to 1 mM glycine [2]: − (−=0)
7 | CC(C)(C)OC(=O)N1CCCCCC12CNC2=O (single isomer, unassigned) [EI-2, tert-butyl 1-oxo-2,5-diazaspiro[3.6]decane-5-carboxylate] | < 1 |  |  |  |  | 
8 | CN1CCCC12CC=CCNC2=O (single isomer, unassigned) [GC-1, 1-methyl-1,7-diazaspiro[4.6]undec-9-en-6-one] | < 1 |  | < 1 | < 100 | > 100 | AUC(0-t) [3]: 1020 ng·h/mL; clearance [3]: 32.2 mL/min/kg; half-life [3]: 40.8 min; Cmax [3]: 1210 ng/mL; Vd [3]: 1.78 L/kg; Tmax [4]: 25.2 min; AUC(0-t) [4]: 4430 ng·h/mL; bioavailability [4]: 87%; Cmax [4]: 2400 ng/mL; CSF Cmax [4]: 744.03 ng/mL; Brain Cmax [4]: 2578.7 ng/mL; Microsomal (Human): percent of compound remaining [5]: 115% and 67%; Plasma (Human): percent of compound remaining [6]: 97%; Plasma (Rat): percent of compound remaining [7]: 89%
9 | O=C1NCCCCC12CCCNC2 (single isomer, unassigned) [CG, 2,8-diazaspiro[5.6]dodecan-7-one] | < 1 |  | < 1 |  |  | 
10 | O=C1NCCCC12CCCN2 (stereo not shown) [EU-1, 1,7-diazaspiro[4.5]decan-6-one] |  |  | < 1 | 0 | < 100 | NMDAR2A B: log EC50 [1]: −
11 | O=C1NCCCCC12CCCCN2 (single isomer, unassigned) [BA, 1,8-diazaspiro[5.6]dodecan-7-one] | < 1 |  | < 1 |  |  | 
12 | O=C1N(Cc2ccc(F)cc2)CC=CCC12CCCN2 (single isomer, unassigned) [GK-1, 7-(4-fluorobenzyl)-1,7-diazaspiro[4.6]undec-9-en-6-one] | < 1 | + (<100%=+) | < 1 |  | > 100 | AUC(0-t) [3]: 335 ng·h/mL; clearance [3]: 98.4 mL/min/kg; half-life [3]: 32.4 min; Cmax [3]: 854 ng/mL; Vd [3]: 3.01 L/kg; % reduction in float time [8]: 24%; Significance vs. vehicle [8]: No; Tmax [4]: 30 min; AUC(0-t) [4]: 718 ng·h/mL; bioavailability [4]: 43%; Cmax [4]: 642 ng/mL; CSF Cmax [4]: 322.45 ng/mL; Brain Cmax [4]: 3368.95 ng/mL
13 | CN1CCCC12CC=CCNC2=O (single isomer, unassigned) [GC-2, 1-methyl-1,7-diazaspiro[4.6]undec-9-en-6-one] | ≥ 1 | + (<100%=+) | < 1 |  |  | Microsomal (Human): percent of compound remaining [5]: 82% and 100%; Plasma (Human): percent of compound remaining [6]: 98%; NMDAR2B A: % maximal [3H]MK-801 binding relative to 1 mM glycine [2]: + (<100%=+); Plasma (Rat): percent of compound remaining [7]: 103%
14 | CC(=O)N1CCCC12CC=CCNC2=O (single isomer, unassigned) [GG-1, 1-acetyl-1,7-diazaspiro[4.6]undec-9-en-6-one] | < 1 |  | < 1 | < 100 | < 100 | 
15 | O=C1NCC=CCC12CC(F)(F)CN2 (single isomer, unassigned) [GL-1, 3,3-difluoro-1,7-diazaspiro[4.6]undec-9-en-6-one] | < 1 |  | < 1 | < 100 | < 100 | 
